Data taken from patent US9556217B2, “Amphiphilic compounds” (WISCONSIN ALUMNI RESEARCH FOUNDATION, priority 2012, dated 2017).

Experiments:
CMP-Sia = molecular target: T1, CMP-Sia (Mus musculus, UniProt Q61420); experiment: CPM thermal stability assay, CMP-Sia; parameters: species or system murine; settings: CMC+0.04 wt %, 30° C., under the conditions used for the gel filtration analysis
T1 construct: GFP-His (C, cleaved yes); made in house; host or cells: Saccharomyces cerevisiae
T1 sequence (Q61420 1-336): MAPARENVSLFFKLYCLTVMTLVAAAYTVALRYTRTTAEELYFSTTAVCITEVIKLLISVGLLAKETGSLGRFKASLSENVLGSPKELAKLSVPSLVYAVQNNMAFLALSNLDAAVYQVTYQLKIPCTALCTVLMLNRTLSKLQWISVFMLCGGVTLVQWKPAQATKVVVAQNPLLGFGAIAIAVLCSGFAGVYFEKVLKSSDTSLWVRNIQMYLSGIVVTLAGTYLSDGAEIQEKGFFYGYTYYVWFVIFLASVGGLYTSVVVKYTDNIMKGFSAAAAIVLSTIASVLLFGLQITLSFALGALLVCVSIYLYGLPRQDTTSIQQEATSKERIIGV
Protocol: FIG. 6. CPM assays for (a) CMP-Sia, (b) GlpG and (c) SQR solubilized with each new amphiphile or DDM. The coumarin moiety of CPM is internally quenched by the maleimide unit, but the coumarin becomes fluorescent following reaction with Cys side chain thiol groups exposed upon protein unfolding. The CPM assay can therefore be used to monitor the extent of protein unfolding. CMP-Sia and GlpG were initially extracted from the native membrane with 1% DDM in PBS, 10 mM imidazole (pH 8.0), 150 mM NaCl, 10% glycerol, and isolated in 20 mM Tris (pH 7.5), 150 mM NaCl containing 0.03% DDM. SQR was extracted from the membrane using 2% C12E9 in 20 mM potassium phosphate (pH 7.4), 0.2 M EDTA, and isolated in 20 mM Tris (pH 7.6), 0.2% decyl-β-D-maltoside (DM). […] The “Relative amount of folded protein” in each case is defined as follows: 100% corresponds to the fluorescence emission intensity at time=0 min; 0% corresponds to the lowest value measured among the amphiphile-treated samples for each protein during the 130 min assay period. […] For GlpG and SQR, 0% is defined by the lowest value measured for protein solubilized with DDM. […]
CMP-Sia and GlpG were expressed as fusion proteins with a C-terminal GFP-His tag in Saccharomyces cerevisiae and Escherichia coli respectively. […]

β2AR WT = molecular target: T2, β2AR WT (Homo sapiens, UniProt P07550); experiment: Extraction of β2AR WT from insect cell membranes; settings: 1 or 2 wt %; western blotting
T2 construct: made in house; host or cells: Sf9 insect cells (baculovirus); lysed cells and membranes extracted directly with amphiphile
T2 sequence (P07550 whole entry): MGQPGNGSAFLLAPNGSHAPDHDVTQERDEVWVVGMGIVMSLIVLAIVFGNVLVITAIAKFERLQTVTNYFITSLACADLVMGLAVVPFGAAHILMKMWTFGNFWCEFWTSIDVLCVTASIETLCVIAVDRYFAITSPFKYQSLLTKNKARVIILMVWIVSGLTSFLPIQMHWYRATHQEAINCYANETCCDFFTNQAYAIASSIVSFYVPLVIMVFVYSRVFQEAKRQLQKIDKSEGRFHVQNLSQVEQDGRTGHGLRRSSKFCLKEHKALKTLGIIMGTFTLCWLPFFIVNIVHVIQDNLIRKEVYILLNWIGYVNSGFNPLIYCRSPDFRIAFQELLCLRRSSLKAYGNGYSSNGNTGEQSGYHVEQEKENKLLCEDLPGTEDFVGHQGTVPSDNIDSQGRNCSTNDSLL
Protocol: The favorable MelB extraction performance of GDN led to the examination of this amphiphile for extraction of other IMPs. […] DDM and GDN were used to extract a CMP-Sia fusion protein bearing green fluorescent protein (GFP) at the C-terminus, after expression in Saccharomyces cerevisiae; the amount of solubilized protein was estimated by total fluorescence. GDN (2 wt %), DDM (1 wt %) and OG (1 wt %) gave ˜70%, ˜80% and ˜50% extraction yields, respectively.
The procedure was performed according to the protocol reported by Chae and coworkers (Nat. Methods 2010, 7, 1003-1008).
A gene encoding amino-terminally FLAG epitope tagged β2AR was expressed in Sf9 cells by baculovirus, with no ligand present during culture. Cells were infected at a density of 4×10^6 cells/mL and then cultured for 48 hours prior to harvesting by centrifugation. Cells were resuspended and lysed by osmotic shock with a low ionic strength buffer (20 mM Tris pH 7.5, 1 mM EDTA). The lysed cells were aliquoted 35 mg per aliquot, then frozen. For extraction tests, 300 μL of solubilization buffer (20 mM HEPES pH 7.5, 100 mM NaCl) containing each amphiphile was added to each aliquot, which was then homogenized by pipet followed by grinding with a glass dounce tissue homogenizer. After two-hour incubation at 4° C., samples were centrifuged at maximum speed in a tabletop microcentrifuge to pellet insoluble material. […]

Row | SMILES | Relative amount of folded protein (CPM assay), CMP-Sia (CMP-Sia) | β2AR WT extraction compared with 1 wt % DDM (β2AR WT)
1 | CCCCCCCCCCCCO[C@@H]1O[C@H](CO)[C@@H](O[C@H]2O[C@H](CO)[C@@H](O)[C@H](O)[C@H]2O)[C@H](O)[C@H]1O [DDM, dodecyl-β-D-maltoside, reference compound] | ~20% | –
2 | C[C@@H]1CC[C@@]2(OC1)O[C@H]1C[C@H]3[C@@H]4CC=C5C[C@@H](OCCC(CO[C@@H]6OC(CO)[C@@H](O[C@H]7OC(CO)[C@@H](O)C(O)C7O)C(O)C6O)CO[C@@H]6OC(CO)[C@@H](O[C@H]7OC(CO)[C@@H](O)C(O)C7O)C(O)C6O)CC[C@]5(C)[C@H]4CC[C@]3(C)[C@@H]1[C@@H]2C (some centres unmarked) [GDN, glyco-diosgenin] | – | more effective than was 1 wt % DDM
